For one assay, the system named is db/db mice. The assay is described as follows: Chronic administration study in db/db mice. Format: in vivo, mouse. As for the experimental part: The diabetic db/db mice (half male and half female, 8–12 weeks, body weight- 40-50 g) were brought from Cavens Company Ltd. (Changzhou) and housed in individual ventilated cages with free access to food and water and maintained on a 12-hour light/dark cycle. Animals were acclimatized for 3 days. On day 0, each animal was weighed using a digital weighing balance. Blood was collected by retro-orbital plexus puncture. Blood glucose level was measured using a hand-held blood glucose meter (Johnson & Johnson) and %HbA1c was measured using auto fluorescence immunoanalyzer.
Animals were divided into treatment groups (n = 8 per group; 4 male, 4 female) with matched baseline %HbA1c levels (mean 7.3%). Vehicle, SM102 (1, 3 and 9 nmol/kg), Semaglutide (15 nmol/kg) were subcutaneously injected into the neck region of the animals on every other day for 4 weeks.
Body weight and food intake were monitored serially. On day 29 of the study, 24 h following the last dose, blood was collected for measurement of %HbA1c, triglycerides, insulin, C-peptide and glucagon. The function of β-cell was assessed via calculating the […] from blood concentrations of glucose and insulin.

A further assay deals with GLP-1R (Homo sapiens, UniProt P43220). The assay is described as follows: cAMP accumulation (HTRF). It counts as cell-based. More on the design: expressed in transfected cells. As for the experimental part: HEK293 cells stably expressing human GLP-1R (hGLP-1 R) (generated in-house using HEK293 cell line purchased from ATCC, Cat# CRL-1573) were maintained in Dulbecco’s Modified Eagle Medium (DMEM, Gibco, 11,054,020) with 10% fetal bovine serum (FBS, Gibco, 10,099,133 C), 1% penicillin/streptomycin (Gibco, 10,378,016) and 1 mg/mL G418 (Gibco, 10,131,035). Wild-type INS-1 832/3 cells, or INS-1 832/3 cells lacking endogenous GLP-1 R (generated in-house using INS-1 832/3 cell line purchased from NTCC, Cat# CVCL_ZL55) were maintained in RPMI-1640 (Gibco, 22,400,071) with 1 mM sodium pyruvate (Gibco, 11,360,070), 50 μM β-mercaptoethanol (Gibco, 21,985,023), 10% FBS, and 1% penicillin/streptomycin. PathHunter CHO-K1-βarr2-EAGLP1R cells (DiscoverX) were maintained in F12 medium (Gibco, 11,320,033) with 10% FBS, 1% penicillin/streptomycin, 1 mg/mL G418 and 250 μg/mL hygromycin (Gibco, 10,687,010).
Sequence of GLP-1R (P43220 24-463): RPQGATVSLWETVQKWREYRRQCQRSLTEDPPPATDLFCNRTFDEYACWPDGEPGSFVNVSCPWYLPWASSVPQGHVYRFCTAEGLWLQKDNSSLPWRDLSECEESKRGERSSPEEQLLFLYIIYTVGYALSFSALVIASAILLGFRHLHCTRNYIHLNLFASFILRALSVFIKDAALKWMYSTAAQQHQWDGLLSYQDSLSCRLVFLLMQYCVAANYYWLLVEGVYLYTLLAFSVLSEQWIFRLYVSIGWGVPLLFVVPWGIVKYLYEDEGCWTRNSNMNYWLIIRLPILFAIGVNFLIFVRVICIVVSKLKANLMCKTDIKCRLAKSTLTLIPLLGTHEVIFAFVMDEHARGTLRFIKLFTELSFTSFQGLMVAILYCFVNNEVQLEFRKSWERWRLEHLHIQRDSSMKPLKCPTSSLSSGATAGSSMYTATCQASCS
HEK293 stably expressing hGLP-1 R cells were stimulated with agonist for 30 min at 37°C in serum-free medium (Gibco, 12,753,018). cAMP was determined at the end of the incubation period by homogenous time resolved fluorescence (HTRF; cAMP Dynamic 2 kit, Cisbio) using a Molecular Devices iD5 plate reader.

In another assay the target is T1, hGLP-1 R (Homo sapiens, UniProt P43220).
T1 construct: expressed in transfected cells; host or cells: INS-1 832/3 (abstract: 832/13) rat insulinoma cells
T1 sequence (P43220 24-463): as above
Description: GLP-1R recycling assay (exendin-4-TMR uptake). Conditions: 100 nM agonist 1 hour, washout, exendin-4-TMR 1 or 3 hours; compared to Semaglutide. Format: cell-based. The procedure: INS-1 hGLP-1 R cells were seeded the day before the assay in 96-well imaging plates. Cells were washed twice with PBS, then stimulated with 100 nM of respective agonist in complete media, with an equal number of wells kept as vehicles. Following stimulation of the cells for 1 hour, they were washed twice with PBS and labeled with exendin-4-TMR13 for either 1 hour or 3 hours, washed again with PBS, and imaged via high content microscopy.

We go through 1 molecule from publication PMC8975272, “Novel glucagon-like peptide-1 analogue exhibits potency-driven G-protein biased agonism with promising effects on diabetes and diabetic dry eye syndrome” (Bioengineered, 2022).

Consider `CC[C@H](C)[C@H](NC(=O)[C@H](Cc1ccccc1)NC(=O)[C@H](CCC(=O)O)NC(=O)[C@H](CCCCNC(=O)COCCOCCNC(=O)C(C)(C)NC(=O)CC[C@H](NC(=O)CCCCCCCCCCCCCCCCC(=O)O)C(=O)O)NC(=O)[C@H](C)NC(=O)[C@H](C)NC(=O)[C@H](CCC(N)=O)NC(=O)CNC(=O)[C@H](CCC(=O)O)NC(=O)[C@H](CC(C)C)NC(=O)[C@H](Cc1ccc(O)cc1)NC(=O)[C@H](CO)NC(=O)[C@H](CO)NC(=O)[C@@H](NC(=O)[C@H](CC(=O)O)NC(=O)[C@H](CO)NC(=O)[C@@H](NC(=O)[C@H](Cc1ccccc1)NC(=O)[C@@H](NC(=O)CNC(=O)[C@H](CCC(=O)O)NC(=O)C(C)(C)NC(=O)[C@@H](N)Cc1c[nH]cn1)[C@@H](C)O)[C@@H](C)O)C(C)C)C(=O)N[C@@H](C)C(=O)N[C@@H](Cc1c[nH]c2ccccc12)C(=O)N[C@@H](CC(C)C)C(=O)N[C@H](C(=O)N[C@@H](CCCNC(=N)N)C(=O)NCC(=O)N[C@@H](CCCNC(=N)N)C(=O)NCC(=O)N[C@@H](CC(C)C)C(N)=O)C(C)C` [SM102], for which, in the assay with db/db mice (SM102 1 nmol/kg, 4 weeks of treatment), the “improvement in blood glucose and insulin secretion vs Semaglutide 15 nmol/kg” value is on record as “comparable to Semaglutide”. Moreover, the “therapeutic effect vs Semaglutide 15 nmol/kg” value in the assay on db/db mice (SM102 3 nmol/kg s.c. every other day, 28 days) is recorded as “comparable”. Further, the “therapeutic effect vs Semaglutide 15 nmol/kg: weight loss, glucose, HOMA-IR” value with db/db mice (SM102 9 nmol/kg s.c. every other day, 28 days) is given as “superior”. At GLP-1R (compared to Semaglutide, agonist 30 min at 37°C, serum-free medium, HTRF, n = 5), the cAMP signaling potency entry was “signaling potency was increased”. At GLP-1R (subtracted pEC50 estimates, SM102 vs Semaglutide, one-way ANOVA with Tukey's test), the “signaling selectivity in favor of cAMP compared to endocytosis and β-arrestin-2 recruitment” value is recorded as “significant signaling selectivity in favor of cAMP”. For the same molecule, the “GLP-1 R recycling” value on hGLP-1 R is recorded as “modestly reduced recycling”.
